According to ChEMBL document CHEMBL5338817, “Discovery of Exceptionally Potent, Selective, and Efficacious PROTAC Degraders of CBP and p300 Proteins” (J Med Chem, 2023):
The source made the active and inactive calls. No cut-off for these calls is given here.

What was measured:
[1] = target: T1, Histone acetyltransferase p300 (Homo sapiens, UniProt Q09472); test: Induction of p300 degradation in human RS4-11 cells assessed as maximal degradation incubated for 4 hrs by Western blot assay relative to control; type: cell-based
T1 sequence (Q09472 whole entry): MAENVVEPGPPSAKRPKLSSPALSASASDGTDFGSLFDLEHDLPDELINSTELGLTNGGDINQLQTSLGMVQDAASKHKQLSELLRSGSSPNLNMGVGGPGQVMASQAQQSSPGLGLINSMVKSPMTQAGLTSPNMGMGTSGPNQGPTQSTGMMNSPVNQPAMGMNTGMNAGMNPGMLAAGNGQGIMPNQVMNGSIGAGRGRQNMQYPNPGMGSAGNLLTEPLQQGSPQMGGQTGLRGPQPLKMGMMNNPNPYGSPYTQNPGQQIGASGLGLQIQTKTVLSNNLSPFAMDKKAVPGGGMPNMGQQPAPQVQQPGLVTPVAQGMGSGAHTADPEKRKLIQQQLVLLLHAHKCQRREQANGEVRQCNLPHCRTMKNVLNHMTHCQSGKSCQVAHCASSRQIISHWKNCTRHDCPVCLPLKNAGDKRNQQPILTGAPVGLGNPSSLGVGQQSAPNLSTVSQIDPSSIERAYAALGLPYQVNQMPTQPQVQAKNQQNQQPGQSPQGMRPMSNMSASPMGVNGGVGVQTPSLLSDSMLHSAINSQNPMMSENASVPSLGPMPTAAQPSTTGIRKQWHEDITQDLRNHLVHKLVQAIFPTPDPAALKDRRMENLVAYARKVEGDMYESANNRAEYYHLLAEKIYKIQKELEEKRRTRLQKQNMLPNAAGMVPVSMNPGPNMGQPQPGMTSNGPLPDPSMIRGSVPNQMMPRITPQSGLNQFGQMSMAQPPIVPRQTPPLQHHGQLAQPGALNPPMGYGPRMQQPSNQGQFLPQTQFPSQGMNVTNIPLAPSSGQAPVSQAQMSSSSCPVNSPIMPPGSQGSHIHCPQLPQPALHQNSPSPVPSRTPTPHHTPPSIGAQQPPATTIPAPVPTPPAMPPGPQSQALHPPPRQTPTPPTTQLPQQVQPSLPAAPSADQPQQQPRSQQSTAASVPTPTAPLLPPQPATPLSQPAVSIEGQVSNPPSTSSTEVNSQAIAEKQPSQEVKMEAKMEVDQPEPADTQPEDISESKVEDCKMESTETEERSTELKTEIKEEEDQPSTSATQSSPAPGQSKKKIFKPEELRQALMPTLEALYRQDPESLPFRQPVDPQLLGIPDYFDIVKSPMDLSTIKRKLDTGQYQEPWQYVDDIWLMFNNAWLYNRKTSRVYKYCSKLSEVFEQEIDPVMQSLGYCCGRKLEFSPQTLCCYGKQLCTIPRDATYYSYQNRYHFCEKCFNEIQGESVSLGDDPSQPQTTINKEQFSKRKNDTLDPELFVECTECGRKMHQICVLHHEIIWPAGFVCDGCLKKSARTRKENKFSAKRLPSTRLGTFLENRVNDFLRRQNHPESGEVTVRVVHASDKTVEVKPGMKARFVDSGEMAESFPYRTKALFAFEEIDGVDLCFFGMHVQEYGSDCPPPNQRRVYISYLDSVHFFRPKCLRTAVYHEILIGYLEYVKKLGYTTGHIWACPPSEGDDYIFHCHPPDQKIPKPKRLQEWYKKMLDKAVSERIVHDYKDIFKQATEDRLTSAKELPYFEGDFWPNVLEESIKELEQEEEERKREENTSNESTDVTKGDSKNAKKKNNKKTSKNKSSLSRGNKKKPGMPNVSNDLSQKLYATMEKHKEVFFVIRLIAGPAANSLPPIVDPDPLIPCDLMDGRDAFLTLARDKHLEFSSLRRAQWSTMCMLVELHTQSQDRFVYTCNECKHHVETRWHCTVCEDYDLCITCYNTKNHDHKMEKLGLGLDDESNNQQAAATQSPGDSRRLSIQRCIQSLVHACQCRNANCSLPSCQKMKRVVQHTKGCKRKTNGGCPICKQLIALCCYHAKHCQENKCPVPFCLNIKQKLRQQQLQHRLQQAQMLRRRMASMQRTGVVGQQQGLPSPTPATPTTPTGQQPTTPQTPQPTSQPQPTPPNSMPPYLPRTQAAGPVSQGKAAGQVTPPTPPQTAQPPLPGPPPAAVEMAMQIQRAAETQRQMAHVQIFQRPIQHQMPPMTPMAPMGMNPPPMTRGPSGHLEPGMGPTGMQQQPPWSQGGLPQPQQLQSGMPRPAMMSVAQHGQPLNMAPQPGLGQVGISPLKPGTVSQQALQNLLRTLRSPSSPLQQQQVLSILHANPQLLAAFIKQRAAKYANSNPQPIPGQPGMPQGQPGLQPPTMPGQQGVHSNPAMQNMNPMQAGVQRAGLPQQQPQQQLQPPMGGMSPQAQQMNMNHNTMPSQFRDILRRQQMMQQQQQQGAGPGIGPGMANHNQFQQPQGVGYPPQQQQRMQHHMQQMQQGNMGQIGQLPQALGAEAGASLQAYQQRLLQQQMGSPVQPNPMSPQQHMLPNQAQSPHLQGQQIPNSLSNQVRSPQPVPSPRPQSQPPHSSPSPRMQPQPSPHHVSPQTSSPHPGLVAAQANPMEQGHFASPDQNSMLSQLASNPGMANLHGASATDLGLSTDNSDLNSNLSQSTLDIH

[2] = target: T1, Histone acetyltransferase p300; test: Induction of p300 degradation in human RS4-11 cells incubated for 4 hrs by Western blot assay; type: cell-based
MV4-11 [3] = test: Cytotoxicity against human MV4-11 cells assessed as inhibition of cell growth incubated for 4 days by cellTiter-Glo assay; type: functional, cell-based; settings: MV4-11, 96 h
[4] = Drug concentration in SCID mouse tumor xenografted with RS4-11 cells at 1 mg/kg, ip measured after 3 hrs by LC-HRMS method; type: ADME, organism-based, Neoplasm; settings: read-out: Ct
Mus musculus [5] = test: In vivo induction of p300 degradation in human RS4-11 cells xenografted in SCID mouse at 1 mg/kg, ip measured after 3 hrs by Western blot analysis; type: functional, organism-based
MOLM-13 [6] = test: Cytotoxicity against human MOLM-13 cells assessed as inhibition of cell growth incubated for 4 days by cellTiter-Glo assay; type: functional, cell-based; settings: MOLM-13, 96 h
RS4-11 [7] = test: Antitumor activity against human RS4-11 cells xenografted in SCID mouse assessed as tumor growth inhibition at 0.3 mg/kg, ip administered five days a week for 2 weeks relative to control; type: functional; parameters: scale not given: the % may be the effect or the level left
[8] = target: Non-selective voltage-gated ion channel VDAC1 (Homo sapiens) (UniProt P21796); test: Induction of VDAC1 degradation in human RS4-11 cells assessed as fold reduction in protein level at 10 nM incubated for 4 hrs by Western blot analysis; type: cell-based
Non-selective voltage-gated ion channel VDAC1 (Homo sapiens), sequence (P21796 whole entry): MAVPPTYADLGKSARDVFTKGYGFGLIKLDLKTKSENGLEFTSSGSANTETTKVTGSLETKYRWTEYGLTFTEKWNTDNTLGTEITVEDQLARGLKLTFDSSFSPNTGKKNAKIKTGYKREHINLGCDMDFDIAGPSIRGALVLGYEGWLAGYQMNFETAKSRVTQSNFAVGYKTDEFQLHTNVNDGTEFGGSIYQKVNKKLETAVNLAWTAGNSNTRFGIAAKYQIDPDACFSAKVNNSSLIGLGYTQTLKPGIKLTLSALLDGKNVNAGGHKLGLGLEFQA

[9] = target: T2, Non-selective voltage-gated ion channel VDAC2 (Homo sapiens) (UniProt P45880); test: Induction of VDAC2 degradation in human RS4-11 cells assessed as fold reduction in protein level at 10 nM incubated for 4 hrs by Western blot analysis; type: cell-based
T2 sequence (whole entry): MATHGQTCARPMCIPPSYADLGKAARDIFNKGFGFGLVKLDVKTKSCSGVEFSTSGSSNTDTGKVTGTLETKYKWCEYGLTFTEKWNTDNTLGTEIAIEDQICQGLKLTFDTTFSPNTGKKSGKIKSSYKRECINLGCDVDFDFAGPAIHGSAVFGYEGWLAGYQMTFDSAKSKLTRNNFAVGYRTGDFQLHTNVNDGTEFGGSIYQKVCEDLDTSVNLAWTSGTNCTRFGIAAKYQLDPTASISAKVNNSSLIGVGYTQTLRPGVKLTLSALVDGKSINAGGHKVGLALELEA

Mus musculus [10] = test: In vivo induction of CBP degradation in human RS4-11 cells xenografted in SCID mouse at 3 mg/kg, ip measured after 24 to 48 hrs by Western blot analysis; type: functional, organism-based; settings: time 24-48 hrs
CREB-binding protein [11] = target: T3, CREB-binding protein (Homo sapiens, UniProt Q92793); test: Induction of CBP degradation in human RS4-11 cells assessed as maximal degradation incubated for 4 hrs by Western blot assay; type: cell-based
Target sequence in this assay (Q92793 2-2442 limits assumed): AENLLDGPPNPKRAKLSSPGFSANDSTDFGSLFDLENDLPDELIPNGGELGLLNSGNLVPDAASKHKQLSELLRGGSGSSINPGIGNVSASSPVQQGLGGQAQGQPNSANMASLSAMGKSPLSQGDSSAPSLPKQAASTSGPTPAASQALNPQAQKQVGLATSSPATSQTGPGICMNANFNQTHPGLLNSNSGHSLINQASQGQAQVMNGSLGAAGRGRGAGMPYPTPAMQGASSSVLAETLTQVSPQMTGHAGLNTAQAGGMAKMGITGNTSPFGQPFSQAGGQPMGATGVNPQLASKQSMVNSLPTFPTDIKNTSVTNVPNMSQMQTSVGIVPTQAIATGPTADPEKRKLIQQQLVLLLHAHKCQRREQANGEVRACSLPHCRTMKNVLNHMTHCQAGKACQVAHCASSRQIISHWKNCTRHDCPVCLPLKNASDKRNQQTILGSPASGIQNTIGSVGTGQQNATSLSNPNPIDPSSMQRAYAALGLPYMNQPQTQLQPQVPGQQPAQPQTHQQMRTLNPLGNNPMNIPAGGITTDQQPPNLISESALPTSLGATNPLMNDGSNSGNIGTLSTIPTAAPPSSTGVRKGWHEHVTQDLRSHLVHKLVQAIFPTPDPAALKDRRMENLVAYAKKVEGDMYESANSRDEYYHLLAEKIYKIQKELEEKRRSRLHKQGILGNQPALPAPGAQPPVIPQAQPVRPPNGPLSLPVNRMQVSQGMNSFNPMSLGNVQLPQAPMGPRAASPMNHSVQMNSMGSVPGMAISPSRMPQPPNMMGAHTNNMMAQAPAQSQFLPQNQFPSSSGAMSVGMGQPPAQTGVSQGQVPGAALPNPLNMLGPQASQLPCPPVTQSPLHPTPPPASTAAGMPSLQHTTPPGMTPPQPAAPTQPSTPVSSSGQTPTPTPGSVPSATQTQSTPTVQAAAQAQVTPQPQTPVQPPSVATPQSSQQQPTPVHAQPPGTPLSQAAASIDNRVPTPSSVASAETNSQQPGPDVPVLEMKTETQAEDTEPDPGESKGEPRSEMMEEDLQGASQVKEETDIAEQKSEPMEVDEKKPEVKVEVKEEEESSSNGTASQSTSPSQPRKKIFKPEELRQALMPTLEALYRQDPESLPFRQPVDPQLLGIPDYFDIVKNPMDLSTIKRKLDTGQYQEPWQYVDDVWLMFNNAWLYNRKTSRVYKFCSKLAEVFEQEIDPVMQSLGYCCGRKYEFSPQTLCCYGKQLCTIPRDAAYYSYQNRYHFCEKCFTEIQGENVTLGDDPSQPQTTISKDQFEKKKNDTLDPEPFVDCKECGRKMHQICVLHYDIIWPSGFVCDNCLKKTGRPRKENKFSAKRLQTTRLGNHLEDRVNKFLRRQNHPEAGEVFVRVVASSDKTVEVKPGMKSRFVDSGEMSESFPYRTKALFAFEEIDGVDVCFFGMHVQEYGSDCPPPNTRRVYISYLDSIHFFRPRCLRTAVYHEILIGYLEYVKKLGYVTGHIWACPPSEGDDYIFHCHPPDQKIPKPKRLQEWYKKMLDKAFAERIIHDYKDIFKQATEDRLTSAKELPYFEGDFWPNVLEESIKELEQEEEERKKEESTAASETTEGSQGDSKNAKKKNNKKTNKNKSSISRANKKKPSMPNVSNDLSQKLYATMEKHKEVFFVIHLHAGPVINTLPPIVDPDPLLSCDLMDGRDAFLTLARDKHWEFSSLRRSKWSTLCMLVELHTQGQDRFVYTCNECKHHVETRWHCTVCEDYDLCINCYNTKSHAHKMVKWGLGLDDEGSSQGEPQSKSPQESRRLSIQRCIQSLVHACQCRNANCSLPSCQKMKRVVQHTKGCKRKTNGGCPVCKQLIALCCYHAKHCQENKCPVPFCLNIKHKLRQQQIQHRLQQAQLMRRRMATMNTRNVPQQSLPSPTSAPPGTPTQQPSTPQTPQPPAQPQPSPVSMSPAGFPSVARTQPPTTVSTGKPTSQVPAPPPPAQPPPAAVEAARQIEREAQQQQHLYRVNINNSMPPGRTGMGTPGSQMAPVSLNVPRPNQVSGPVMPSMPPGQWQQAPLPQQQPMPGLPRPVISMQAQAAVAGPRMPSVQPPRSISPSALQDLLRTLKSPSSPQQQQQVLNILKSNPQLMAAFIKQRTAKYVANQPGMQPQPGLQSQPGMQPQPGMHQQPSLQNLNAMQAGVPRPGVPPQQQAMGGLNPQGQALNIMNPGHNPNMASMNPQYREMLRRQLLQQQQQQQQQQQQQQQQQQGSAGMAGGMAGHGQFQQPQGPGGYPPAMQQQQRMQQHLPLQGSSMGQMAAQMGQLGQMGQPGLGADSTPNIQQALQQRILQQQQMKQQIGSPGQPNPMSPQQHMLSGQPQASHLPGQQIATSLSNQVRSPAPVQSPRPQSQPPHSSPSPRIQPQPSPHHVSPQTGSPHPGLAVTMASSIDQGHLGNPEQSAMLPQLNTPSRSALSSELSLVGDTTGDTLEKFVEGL

Mus musculus [12] = test: In vivo induction of p300 degradation in human RS4-11 cells xenografted in SCID mouse at 3 mg/kg, ip measured after 24 to 48 hrs by Western blot analysis; type: functional, organism-based; settings: time 24-48 hrs
RS4-11 [13] = test: Downregulation of MYC gene expression in human RS4-11 cells at 1 nM measured after 8 hrs by qRT-PCR analysis; type: functional, cell-based
CREB-binding protein [14] = target: T3, CREB-binding protein; test: Induction of CBP degradation in human RS4-11 cells incubated for 4 hrs by Western blot assay; type: cell-based
[15] = Toxicity in SCID mouse xenografted with human RS4-11 cells assessed as body weight loss at 1 mg/kg, ip administered three times a week for 2 weeks relative to control; type: organism-based; settings: in vivo, 336 h
RS4-11 [16] = test: In vivo induction of CBP degradation in human RS4-11 cells xenografted in SCID mouse at 3 mg/kg, ip measured after 3 to 6 hrs by Western blot analysis; type: functional, organism-based; settings: time 3-6 hrs
Mus musculus [17] = test: In vivo induction of CBP degradation in human RS4-11 cells xenografted in SCID mouse at 1 mg/kg, ip measured after 3 hrs by Western blot analysis; type: functional, organism-based
[18] = Toxicity in SCID mouse xenografted with human RS4-11 cells assessed as body weight loss at 1 mg/kg, ip administered twice a week on day 1 and day 4 for 2 weeks relative to control; type: organism-based; settings: in vivo, 336 h
[19] = target: T1, Histone acetyltransferase p300; test: Induction of p300 degradation in human RS4-11 cells at 10 nM incubated for 3 hrs by Proteomics analysis; type: cell-based
CREB-binding protein [20] = target: T3, CREB-binding protein; test: Induction of CBP degradation in human RS4-11 cells at 10 nM incubated for 3 hrs by Proteomics analysis; type: cell-based
Target sequence in this assay (Q92793 2-2442 limits assumed): as above

[21] = Drug concentration in SCID mouse tumor xenografted with RS4-11 cells at 3 mg/kg, ip measured after 3 hrs by LC-HRMS method; type: ADME, organism-based, Neoplasm; settings: read-out: Ct
[22] = Toxicity in SCID mouse xenografted with human RS4-11 cells assessed as body weight loss at 0.3 mg/kg, ip administered five days a week for 2 weeks relative to control; type: organism-based; settings: in vivo, 336 h
RS4-11 [23] = test: Cytotoxicity against human RS4-11 cells assessed as maximum inhibition of cell growth incubated for 4 days by cellTiter-Glo assay relative to control; type: functional; settings: time 4 day
RS4-11 [24] = test: Antitumor activity against human RS4-11 cells xenografted in SCID mouse assessed as tumor growth inhibition at 3 mg/kg, ip administered once a week on day 1 for 2 weeks relative to control; type: functional; parameters: scale not given: the % may be the effect or the level left
HL-60 [25] = test: Cytotoxicity against human HL-60 cells assessed as inhibition of cell growth incubated for 4 days by cellTiter-Glo assay; type: functional, cell-based; settings: HL-60, 96 h
RS4-11 [26] = test: Antitumor activity against human RS4-11 cells xenografted in SCID mouse assessed as tumor growth inhibition at 1 mg/kg, ip administered twice a week on day 1 and day 4 for 2 weeks relative to control; type: functional; parameters: scale not given: the % may be the effect or the level left
RS4-11 [27] = test: In vivo induction of p300 degradation in human RS4-11 cells xenografted in SCID mouse at 3 mg/kg, ip measured after 3 to 6 hrs by Western blot analysis; type: functional, organism-based; settings: time 3-6 hrs
MOLM-13 [28] = test: Cytotoxicity against human MOLM-13 cells assessed as maximum inhibition of cell growth incubated for 4 days by cellTiter-Glo assay relative to control; type: functional; settings: time 4 day
RS4-11 [29] = test: Induction of cell cycle arrest in human RS4-11 cells assessed as accumulation at G1 phase at 1 uM measured after 8 hrs by PI staining based flow cytometric analysis; type: functional
MV4-11 [30] = test: Cytotoxicity against human MV4-11 cells assessed as maximum inhibition of cell growth incubated for 4 days by cellTiter-Glo assay relative to control; type: functional; settings: time 4 day
[31] = Toxicity in SCID mouse xenografted with human RS4-11 cells assessed as body weight loss at 3 mg/kg, ip administered once a week on day 1 for 2 weeks relative to control; type: organism-based; settings: in vivo, 336 h
[32] = Drug concentration in IP dosed SCID mouse tumor xenografted with RS4-11 cells measured after 24 to 48 hrs by LC-HRMS method; type: ADME, organism-based, Neoplasm; settings: in vivo, time 24-48 hrs
RS4-11 [33] = test: Cytotoxicity against human RS4-11 cells assessed as inhibition of cell growth incubated for 4 days by cellTiter-Glo assay; type: functional, cell-based; settings: RS4-11, 96 h
RS4-11 [34] = test: Downregulation of MYB gene expression in human RS4-11 cells at 1 nM measured after 8 hrs by qRT-PCR analysis; type: functional, cell-based
HL-60 [35] = test: Cytotoxicity against human HL-60 cells assessed as maximum inhibition of cell growth incubated for 4 days by cellTiter-Glo assay relative to control; type: functional; settings: time 4 day
RS4-11 [36] = test: Antitumor activity against human RS4-11 cells xenografted in SCID mouse assessed as tumor growth inhibition at 1 mg/kg, ip administered thrice a week on day 1, 3 and 5 for 2 weeks relative to control; type: functional; parameters: scale not given: the % may be the effect or the level left
[37] = target: Bromodomain-containing protein 4 (Homo sapiens) (UniProt O60885); test: Induction of BRD4 degradation in human RS4-11 cells at 10 nM incubated for 4 hrs by Western blot analysis; type: cell-based

With CC(=O)N1CCc2c(c(-c3cccc4cc(-c5ccc(C(=O)NC6CCN(c7ccc8c(c7)CN(C7CCC(=O)NC7=O)C8=O)CC6)nc5)ncc34)nn2C2CCOCC2)C1 (configuration not stated) the Emax [1] was 99%, the EC50 [2] was 0.2 nM and the IC50 (MV4-11 [3]) was 0.04 nM. The concentration at 3 h [4] was 57.5 ng/g, the Activity (Mus musculus [5]) was “Active” and the IC50 (MOLM-13 [6]) was 2.3 nM. The Activity (RS4-11 [7]) was 68%, the fold change (FC) [8] was 2 and the fold change (FC) [9] was 2. For the same compound, the Activity (Mus musculus [10]) was “inactive”, the Emax (CREB-binding protein [11]) was 99% and the Activity (Mus musculus [12]) was “inactive”. For the same compound, the Activity (RS4-11 [13]) was “Active”, the EC50 (CREB-binding protein [14]) was 0.05 nM and the Activity [15] was less than 3%. The Activity (RS4-11 [16]) was “Active”, the Activity (Mus musculus [17]) was “Active” and the Activity [18] was less than 10%. The Activity [19] was “Active”, the Activity (CREB-binding protein [20]) was “Active” and the concentration at 3 h [21] was 240 ng/g. It also gave an Activity [22] of less than 3%, an Imax (RS4-11 [23]) of 94% and an Activity (RS4-11 [24]) of 81%. For the same compound, the IC50 (HL-60 [25]) was 0.54 nM, the Activity (RS4-11 [26]) was 81% and the Activity (RS4-11 [27]) was “Active”. The Imax (MOLM-13 [28]) was 96%, the Activity (RS4-11 [29]) was “Active” and the Imax (MV4-11 [30]) was 99%. The Activity [31] was less than 10%, the Drug uptake [32] was “Not Active” and the IC50 (RS4-11 [33]) was 0.1 nM. The Activity (RS4-11 [34]) was “Active”, the Imax (HL-60 [35]) was 96% and the Activity (RS4-11 [36]) was 68%. For the same compound, the Activity [37] was “inactive”.
